Assays:
Assay in all cases: selective drug sensitivity score (sDSS, relative to normal bone marrow) (sDSS (score)); higher = more potent and effective on the cell line relative to normal bone marrow cells
Details in all cases: 72 h
[1] = system: 380
[2] = system: 697
[3] = system: ALL-PO
[4] = system: CCRF-HSB2
[5] = system: COG-LL-394h
[6] = system: COG-LL-402h
[7] = system: DND-41
[8] = system: JURKAT
[9] = system: KASUMI-10
[10] = system: KASUMI-2
[11] = system: KASUMI-9
[12] = system: LC4-1
[13] = system: MHH-CALL-3
[14] = system: NALL-1
[15] = system: NALM-16
[16] = system: P12-ICHIKAWA
[17] = system: PEER
[18] = system: RPMI-8402
[19] = system: SEM cells
[20] = system: SUP-B15
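Also: ALL cell lines in 384-well plates, five doses spanning 10,000-fold, each plate scaled between vehicle and 100 µmol/L benzalkonium chloride controls, sDSS an adapted area-under-curve metric.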

SMILES	selective drug sensitivity score [1]	selective drug sensitivity score [2]	selective drug sensitivity score [3]	selective drug sensitivity score [4]	selective drug sensitivity score [5]	selective drug sensitivity score [6]	selective drug sensitivity score [7]	selective drug sensitivity score [8]	selective drug sensitivity score [9]	selective drug sensitivity score [10]	selective drug sensitivity score [11]	selective drug sensitivity score [12]	selective drug sensitivity score [13]	selective drug sensitivity score [14]	selective drug sensitivity score [15]	selective drug sensitivity score [16]	selective drug sensitivity score [17]	selective drug sensitivity score [18]	selective drug sensitivity score [19]	selective drug sensitivity score [20]
Nc1nc(Nc2ccc3c(c2)CC[C@@H](N2CCCC2)CC3)nn1-c1cc2c(nn1)-c1ccccc1CCC2 [BGB324] (top concentration 10000 nM)	-0.88	3.52	6.02	2.32	2.82	2.32	1.32	1.02	0.32	-1.58	5.22	1.52	-0.98	-2.68	-1.58	0.02	4.42	2.92	5.72	3.02
N.N.[Cl][Pt][Cl] [Cisplatin] (top concentration 100000 nM)	7.54	19.7	8.44	21	0.54	1.54	9.54	13.1	12	17.2	12.3	17.7	4.04	6.84	-0.86	12.7	2.64	4.04	12.2	17.4
CONC(=O)c1ccccc1Nc1cc(Nc2cc(C)nn2C(C)C)ncc1Cl (top concentration 1000 nM)	1.16	-0.94	-0.14	-0.94	-0.94	-0.94	0.56	-0.94	-0.94	-0.94	-0.94	3.36	-0.94	-0.94	-0.94	-0.94	-0.94	-0.94	-0.94	-0.94
Cc1cc(Nc2nc(N[C@@H](C)c3ncc(F)cn3)ncc2Cl)[nH]n1 [AZD1480] (top concentration 1000 nM)	-0.58	-3.78	0.72	-1.78	-4.18	-3.98	0.72	-3.68	-0.48	-4.28	-0.68	-4.08	-1.28	-1.48	-4.28	-4.28	-3.48	-3.18	-1.98	0.02
O=C(NCc1ccncc1)C12CC3CC(C1)CC(c1ccc(Cl)cc1)(C3)C2 (top concentration 50000 nM)	0.38	3.78	3.28	2.68	2.88	0.08	4.08	3.18	0.98	-0.42	4.28	0.18	2.78	3.58	-0.72	3.68	2.88	2.68	3.88	0.18
CN1C(=O)N[C@H](Cc2c[nH]c3c(Cl)cccc23)C1=O [Necrostatin_2] (top concentration 10000 nM)	-0.08	-0.08	-0.08	-0.08	-0.08	-0.08	-0.08	-0.08	-0.08	-0.08	-0.08	-0.08	-0.08	-0.08	-0.08	-0.08	-0.08	-0.08	-0.08	-0.08
O=C(Nc1cnn2ccc(N3CCC[C@@H]3c3cc(F)ccc3F)nc12)N1CC[C@H](O)C1 [Larotrectinib] (top concentration 1000 nM)	-0.62	-0.62	-0.62	-0.62	-0.62	2.78	-0.62	-0.62	-0.62	-0.62	0.98	1.28	-0.62	-0.62	-0.62	-0.62	-0.62	-0.62	-0.62	0.08
CN(C)C(=O)c1ccc(S(=O)(=O)c2ccc(NC(=O)[C@@](C)(O)C(F)(F)F)c(Cl)c2)cc1 [AZD7545] (top concentration 10000 nM)	-0.2	4.3	2.6	1.3	4.1	-0.2	0.1	7	-0.2	5.3	-0.2	1.6	0.1	-0.2	0.3	2.7	6.2	5.7	0.6	4.9
Cc1cc2c(F)c(Oc3ncnn4cc(OC[C@@H](C)O)c(C)c34)ccc2[nH]1 [Brivanib] (top concentration 1000 nM)	-0.04	0.66	-0.04	-0.04	-0.04	-0.04	-0.04	1.46	-0.04	-0.04	-0.04	-0.04	-0.04	-0.04	-0.04	1.56	-0.04	0.46	-0.04	-0.04
CC1(C)CCC(CN2CCN(c3ccc(C(=O)NS(=O)(=O)c4ccc(NCC5CCOCC5)c([N+](=O)[O-])c4)c(Oc4cnc5[nH]ccc5c4)c3)CC2)=C(c2ccc(Cl)cc2)C1 [Venetoclax] (top concentration 1000 nM)	29	10.1	30.2	-2.9	4.5	14.1	2.1	-3.3	29.5	22.9	25.4	31.8	31.5	20.5	22.6	-2.4	-2.9	-4.4	21.1	34.5
N#CC1(c2ccc(NC(=O)c3cccnc3NCc3ccncc3)cc2)CCCC1 [Apatinib] (top concentration 10000 nM)	0	0	2.4	0.3	0	0	1	0	0	2.1	0	1.2	0	0	0	0	2.2	0.1	1	0.1
C=CC[C@@H]1/C=C(\C)C[C@H](C)C[C@H](OC)[C@H]2O[C@@](O)(C(=O)C(=O)N3CCCC[C@H]3C(=O)O[C@H](/C(C)=C/[C@@H]3CC[C@@H](O)[C@H](OC)C3)[C@H](C)[C@@H](O)CC1=O)[C@H](C)C[C@@H]2OC [Tacrolimus] (top concentration 10000 nM)	1.88	2.88	2.08	3.38	3.08	-0.72	0.68	1.78	-0.72	-0.72	12.1	21.1	33.9	0.48	12.5	1.58	1.38	1.38	7.88	18.3
CCNc1nc(Nc2cc(F)c(C(=O)N3CCOCC3)cc2OC)ncc1C(F)(F)F [GNE-7915] (top concentration 1000 nM)	-0.06	-0.06	-0.06	-0.06	-0.06	-0.06	-0.06	-0.06	-0.06	-0.06	-0.06	-0.06	-0.06	-0.06	-0.06	-0.06	-0.06	-0.06	-0.06	-0.06
COc1cc(Nc2c(C#N)cnc3cc(OCCCN4CCN(C)CC4)c(OC)cc23)c(Cl)cc1Cl [Bosutinib] (top concentration 10000 nM)	-0.64	5.86	0.36	27	1.16	5.66	0.06	-0.74	-1.14	-2.04	4.06	0.96	8.06	-0.94	-3.04	0.96	9.16	1.56	1.96	16
C[C@H]1CN(C2COC2)CCN1c1ccc(Nc2cc(-c3ccnc(N4CCn5c(cc6c5CC(C)(C)C6)C4=O)c3CO)cn(C)c2=O)nc1 [GDC-0853] (top concentration 1000 nM)	0	0	0	0	0	1.1	0	0	0	0	0	0	0	0	0	0	0	0	0	0
COc1cc2c(NC3CCN(C(C)C)CC3)nc(C3CCCCC3)nc2cc1OCCCN1CCCC1 [UNC0638] (top concentration 10000 nM)	0.06	-0.84	-1.74	0.16	0.16	1.16	3.36	-2.64	-3.34	-4.34	-1.64	-2.84	0.86	-5.14	-3.04	-2.84	1.26	-0.04	-2.94	-1.04
COc1cc2ncnc(Nc3ccc(F)c(Cl)c3)c2cc1OCCCN1CCOCC1 [Gefitinib] (top concentration 10000 nM)	-3.04	2.26	4.16	6.16	0.16	0.96	1.16	-1.44	1.36	-3.04	0.16	1.16	-2.94	1.06	-3.04	0.96	2.76	3.96	0.66	1.56
Cc1ccc(NS(=O)(=O)c2cccc(C#N)c2)c2[nH]cc(C#N)c12 [E7820] (top concentration 50000 nM)	30.8	21.7	4.92	18	-1.58	17.2	9.82	21.7	4.62	5.82	12.7	11.8	7.82	6.42	1.82	15.4	17.8	17.9	19.5	8.72
